What is called IC50 is the concentration that inhibits the measured activity by half.

Molecules are shown by their SMILES.

The test has as its system γ-secretase. Nature of the test: Cellular γ-secretase assay (inhibition of Aβ42 secretion, AlphaLisa). In kind it is cell-based. To be noted: human neuroglioma H4 cells overexpressing human APP695 Swedish double mutation, 24 h compound incubation. The protocol:
Human neuroglioma H4 cells overexpressing human APP695 with the Swedish double mutation (K595N/M596L) were plated at 30,000 cells/well/100 μL in 96-well plates in IMDM containing 10% FCS, 0.2 mg/L Hygromycin B and incubated at 37° C., 5% CO2. 3-4 h post plating, compounds are a diluted in media and 50 μL is added as […] concentrate to achieve the final concentration. Compound incubation is performed for 24 h. Final doses typically range from 4 μM down to 0.0013 μM in half-log steps resulting in an eight-point dose response curve.
Appropriate controls using vehicle only and reference compound were applied to this assay. The final concentration of Me2SO was 0.4%.
After incubation at 37° C., 5% CO2, the supernatant was subjected to quantification of secreted Aβ42 by the means of an AlphaLisa assay kit (Human Amyloid beta 1-42 Kit: Cat # AL203C, Perkin Elmer). 20 μL of the cell culture supernatant was transferred to an assay plate. Then 10 μL, of a mixture of the AlphaLisa coupled capture antibody and the biotinylated detection antibody was added and incubated for 3 h at RT while softly shaking the assay plate. After a further addition of 20 μL of the Donor beads the assay plate was incubated for 30 min at RT and constant shaking without exposure to direct light. The assay plate was then read on a Paradigm AlphaLisa Reader using the build-in program with excitation at 680 nm and emission at 570 nm. The measured signals were then used to calculate IC50 values for inhibition of Aβ42 secretion by nonlinear regression fit analysis using XLfit 5.3 software (from IDBS company).
A general note: Bead proximity is the source of the signal in Alpha formats.
Regarding `COc1cc(N2C[C@H]3CC[C@@H](C2)[C@@H]3Nc2nc3n(n2)CCCO[C@@H]3c2cccc(F)c2F)cnn1` (single isomer, unassigned) [Example 1], the midpoint of inhibition, the IC50, lay at 0.0847 µM.
In the case of `COc1cc(N2C[C@H]3CC[C@@H](C2)[C@@H]3Nc2nc3n(n2)CCCOC3c2cccc(F)c2F)cnn1` (single isomer, unassigned) [Example 2], the IC50 came out at 0.0511 µM.
In the case of `COc1cc(N2C[C@H]3CC[C@@H](C2)[C@@H]3Nc2nc3n(n2)CCCOC3c2ccc(F)cc2F)cnn1` (single isomer, unassigned) [Example 4], the IC50 was found to be 0.0762 µM.
The result for `Cc1cc(N2C[C@H]3CC[C@@H](C2)[C@@H]3Nc2nc3n(n2)CCCO[C@@H]3c2cccc(F)c2F)ncn1` (single isomer, unassigned) [Example 5] reads 0.0477 µM.
The compound `Cc1cc(N2C[C@H]3CC[C@@H](C2)[C@@H]3Nc2nc3n(n2)CCCOC3c2cccc(F)c2F)ncn1` (single isomer, unassigned) [Example 6] gave an IC50 of 0.0623 µM.
The result for `Cc1cc(N2C[C@H]3CC[C@@H](C2)[C@@H]3Nc2nc3n(n2)CCCO[C@@H]3c2cc(F)cc(F)c2)ncn1` (single isomer, unassigned) [Example 7] reads 0.0433 µM.
Compound `Cc1cc(N2C[C@H]3CC[C@@H](C2)[C@@H]3Nc2nc3n(n2)CCCO[C@@H]3c2ccc(F)cc2F)ncn1` (single isomer, unassigned) [Example 8] showed an IC50 of 0.0749 µM.
Regarding `Cc1cc(N2C[C@H]3CC[C@@H](C2)[C@@H]3Nc2nc3n(n2)CCCOC3c2cc(F)cc(F)c2)ncn1` (single isomer, unassigned) [Example 9], it took 0.0217 µM to reach half-maximal inhibition (IC50).
`Cc1cc(N2C[C@H]3CC[C@@H](C2)[C@@H]3Nc2nc3n(n2)CCCOC3c2ccc(F)cc2F)ncn1` (single isomer, unassigned) [Example 10] returned an IC50 of 0.0718 µM.
`COc1cc(N2C[C@H]3CC[C@@H](C2)[C@@H]3Nc2nc3n(n2)CCCOC3c2cc(F)cc(F)c2)cnn1` (single isomer, unassigned) [Example 12] yielded a 50% inhibitory concentration (IC50) of 0.0723 µM.
The value for `COc1cc(N2C[C@H]3CC[C@@H](C2)[C@@H]3Nc2nc3n(n2)CCCO[C@@H]3c2ccc(F)c(F)c2F)cnn1` (single isomer, unassigned) [Example 13] was 0.0218 µM; that for `COc1cc(N2C[C@H]3CC[C@@H](C2)[C@@H]3Nc2nc3n(n2)CCCOC3c2ccc(F)c(F)c2F)cnn1` (single isomer, unassigned) [Example 14] was 0.0451 µM; that for `Cc1cc(N2C[C@H]3CC[C@@H](C2)[C@@H]3Nc2nc3n(n2)CCCOC3c2cc(F)cc(Cl)c2)cnn1` (single isomer, unassigned) [Example 16] was 0.0626 µM.
The compound `Cc1cc(N2C[C@H]3CC[C@@H](C2)[C@@H]3Nc2nc3n(n2)CCCO[C@@H]3c2ccc(F)c(F)c2F)cnn1` (single isomer, unassigned) [Example 17] gave an IC50 of 0.0823 µM.
For `COc1cc(N2C[C@H]3CC[C@@H](C2)[C@@H]3Nc2nc3n(n2)CCCO[C@@H]3c2cc(F)cc(Cl)c2)cnn1` (single isomer, unassigned) [Example 19], the midpoint of inhibition, the IC50, lay at 0.0132 µM.
In the case of `COc1cc(N2C[C@H]3CC[C@@H](C2)[C@@H]3Nc2nc3n(n2)CCCOC3c2cc(F)cc(Cl)c2)cnn1` (single isomer, unassigned) [Example 20], half-maximal inhibition (IC50) required 0.0345 µM.
The result for `COc1cc(N2C[C@H]3CC[C@@H](C2)[C@@H]3Nc2nc3n(n2)CCOC3c2cc(F)cc(Cl)c2)cnn1` (single isomer, unassigned) [Example 22] reads 0.0718 µM.
Compound `Cc1cc(N2C[C@H]3CC[C@@H](C2)[C@@H]3Nc2nc3n(n2)CCOC3c2ccc(F)c(F)c2F)ncn1` (single isomer, unassigned) [Example 24] yielded an IC50 of 0.0789 µM.
The compound `COc1cc(N2C[C@H]3CC[C@@H](C2)[C@@H]3Nc2nc3n(n2)CCOC3c2ccc(F)c(F)c2F)cnn1` (single isomer, unassigned) [Example 28] gave an IC50 of 0.0959 µM.
In the case of `COc1cc(N2C[C@H]3CC[C@@H](C2)[C@@H]3Nc2nc3n(n2)CCO[C@@H]3c2ccc(F)c(F)c2F)ccn1` (single isomer, unassigned) [Example 31], 0.052 µM corresponded to half-maximal inhibition (IC50).
For `Cc1cc(N2C[C@H]3CC[C@@H](C2)[C@@H]3Nc2nc3n(n2)CCCO[C@@H]3c2cc(F)cc(Cl)c2)ncn1` (single isomer, unassigned) [Example 33], it took 0.0109 µM to reach half-maximal inhibition (IC50).
The compound `Cc1cc(N2C[C@H]3CC[C@@H](C2)[C@@H]3Nc2nc3n(n2)CCCOC3c2cc(F)cc(Cl)c2)ncn1` (single isomer, unassigned) [Example 34] registered an IC50 of 0.0196 µM.
The result for `COc1cc(N2C[C@H]3CC[C@@H](C2)[C@@H]3Nc2nc3n(n2)CCCO[C@@H]3c2cc(F)cc(Cl)c2)ccn1` (single isomer, unassigned) [Example 35] reads 0.00658 µM.
`COc1cc(N2C[C@H]3CC[C@@H](C2)[C@@H]3Nc2nc3n(n2)CCCOC3c2cc(F)cc(Cl)c2)ccn1` (single isomer, unassigned) [Example 36] registered an IC50 of 0.0129 µM.
The value for `COc1cc(N2C[C@H]3CC[C@@H](C2)[C@@H]3Nc2nc3n(n2)CCCOC3c2ccc(F)c(F)c2F)ccn1` (single isomer, unassigned) [Example 38] was 0.0127 µM; that for `Cc1cc(N2C[C@H]3CC[C@@H](C2)[C@@H]3Nc2nc3n(n2)CCCO[C@@H]3c2ccc(F)c(F)c2F)ncn1` (single isomer, unassigned) [Example 39] was 0.0439 µM.
Compound `Cc1cc(N2C[C@H]3CC[C@@H](C2)[C@@H]3Nc2nc3n(n2)CCCOC3c2ccc(F)c(F)c2F)ncn1` (single isomer, unassigned) [Example 40] registered an IC50 of 0.0192 µM.
For the compound `COc1cc(N2C[C@H]3CC[C@@H](C2)[C@@H]3Nc2nc3n(n2)CCCO[C@@H]3c2ccc(F)cc2F)cnn1` [Example 3, (9R)-9-(2,4-difluorophenyl)-N-[(1R,5S)-3-(6-methoxypyridazin-4-yl)-3-azabicyclo[3.2.1]octan-8-yl]-5,6,7,9-tetrahydro-[1,2,4]triazolo[5,1-c][1,4]oxazepin-2-amine], it took 0.0874 µM to reach half-maximal inhibition (IC50).
In turn, `COc1cc(N2C[C@H]3CC[C@@H](C2)[C@@H]3Nc2nc3n(n2)CCCO[C@@H]3c2cc(F)cc(F)c2)cnn1` [Example 11, (9R)-9-(3,5-difluorophenyl)-N-[(1R,5S)-3-(6-methoxypyridazin-4-yl)-3-azabicyclo[3.2.1]octan-8-yl]-5,6,7,9-tetrahydro-[1,2,4]triazolo[5,1-c][1,4]oxazepin-2-amine] registered an IC50 of 0.0221 µM.
`Cc1cc(N2C[C@H]3CC[C@@H](C2)[C@@H]3Nc2nc3n(n2)CCCO[C@@H]3c2cc(F)cc(Cl)c2)cnn1` [Example 15, (9R)-9-(3-chloro-5-fluoro-phenyl)-N-[(1R,5S)-3-(6-methylpyridazin-4-yl)-3-azabicyclo[3.2.1]octan-8-yl]-5,6,7,9-tetrahydro-[1,2,4]triazolo[5,1-c][1,4]oxazepin-2-amine] registered an IC50 of 0.0239 µM.
The compound `COc1cc(N2C[C@H]3CC[C@@H](C2)[C@@H]3Nc2nc3n(n2)CCO[C@@H]3c2cc(F)cc(Cl)c2)cnn1` [Example 21, (8R)-8-(3-chloro-5-fluoro-phenyl)-N-[(1R,5S)-3-(6-methoxypyridazin-4-yl)-3-azabicyclo[3.2.1]octan-8-yl]-6,8-dihydro-5H-[1,2,4]triazolo[5,1-c][1,4]oxazin-2-amine] yielded an IC50 of 0.0166 µM.
On to `Cc1cc(N2C[C@H]3CC[C@@H](C2)[C@@H]3Nc2nc3n(n2)CCO[C@@H]3c2ccc(F)c(F)c2F)ncn1` [Example 23, (8R)—N-[(1R,5S)-3-(6-methylpyrimidin-4-yl)-3-azabicyclo[3.2.1]octan-8-yl]-8-(2,3,4-trifluorophenyl)-6,8-dihydro-5H-[1,2,4]triazolo[5,1-c][1,4]oxazin-2-amine], for which half-maximal inhibition (IC50) required 0.0597 µM.
Compound `Cc1cc(N2C[C@H]3CC[C@@H](C2)[C@@H]3Nc2nc3n(n2)CCO[C@@H]3c2cc(F)cc(Cl)c2)ncn1` [Example 25, (8R)-8-(3-chloro-5-fluoro-phenyl)-N-[(1R,5S)-3-(6-methylpyrimidin-4-yl)-3-azabicyclo[3.2.1]octan-8-yl]-6,8-dihydro-5H-[1,2,4]triazolo[5,1-c][1,4]oxazin-2-amine] displayed a concentration for half-maximal inhibition (IC50) of 0.0208 µM.
In turn, `COc1cc(N2C[C@H]3CC[C@@H](C2)[C@@H]3Nc2nc3n(n2)CCO[C@@H]3c2ccc(F)c(F)c2F)cnn1` [Example 27, (8R)—N-[(1R,5S)-3-(6-methoxypyridazin-4-yl)-3-azabicyclo[3.2.1]octan-8-yl]-8-(2,3,4-trifluorophenyl)-6,8-dihydro-5H-[1,2,41]triazolo[5,1-c][1,4]oxazin-2-amine] gave an IC50 of 0.0774 µM.
Regarding `COc1cc(N2C[C@H]3CC[C@@H](C2)[C@@H]3Nc2nc3n(n2)CCO[C@@H]3c2cc(F)cc(Cl)c2)ccn1` [Example 29, (8R)-8-(3-chloro-5-fluoro-phenyl)-N-[(1R,5S)-3-(2-methoxy-4-pyridyl)-3-azabicyclo[3.2.1]octan-8-yl]-6,8-dihydro-5H-[1,2,4]triazolo[5,1-c][1,4]oxazin-2-amine], inhibition was half-maximal at 0.0112 µM (IC50).

For the origin of these results see US12084461B2, “Bicyclic heteroaryl derivatives” (Hoffmann-La Roche Inc., priority 2018, dated 2024).
